For the assay, the system named is A. flavus 3357. In words: Heat-sensitizing antimicrobial bioassay (MFC) in A. flavus 3357. The assay is classed as cell-based, Aspergillus flavus. The conditions noted are these: for MFC: read-out: minimum fungicidal concentration (MFC; >99.999% fungal death). The protocol:
Antimicrobial bioassay: The heat-sensitizing effect of twenty-eight compounds (phenolic derivatives, alkyl gallates, other food additives) (0.025, 0.050, 0.075, 0.100, 0.200, 0.300, 0.400, 0.500, 0.600 or 0.700 mM) and six drugs/fungicides (1, 2, 4, 8, 16, 32, 64 ppm) (Table 2) were examined using A. flavus 3357. Two hundred μL of fungal spores (1.5×10^5 to 2.1×10^5 CFU) dispersed in PBS was transferred into individual microfuge tube (1.5 mL vol.), where (1) “control” tube contained DMSO only, while (2) “treatment” tube contained test chemical/drug at respective concentration. The tubes were then treated with mild heat (57.5° C.) or maintained at room temperature (RT; 22.0° C.) for 90 seconds. After treatments, entire volume (200 μL) from each microfuge tube was spread onto fresh recovery PDA, and plates were incubated at respective temperatures. Fungal growth/survival was monitored after 48 hrs of incubation.
As described in A. flavus 3357 test (see above), microfuge tubes were treated with mild heat (57.5° C.) or maintained at RT (22.0° C.) (90 seconds). After heat treatments, entire volume (200 μL) from each microfuge tube was spread onto fresh recovery LB agar (for bacteria) or PDA (for fungi), and plates were incubated at the optimum temperature for respective microorganisms (i.e., 35° C. for Aspergillus, 37° C. for E. coli, 28° C. for Penicillium/A. tumefaciens, respectively). The growth/survival of test microorganisms were monitored after 48 to 72 hrs of incubation.
Determination of optimum temperature and time duration for screening heat sensitizers in A. flavus 3357: For the determination of the optimum temperature and time points for screening heat sensitizers, fungal (A. flavus 3357) survivability was tested by exposing fungal spores (1.5×10^5 to 2.1×10^5 CFU) to different temperatures (50, 55, 57.5, 60, 65° C.) and time points (0.5, 1.0, 1.5, 2.0, 2.5, 3.0, 3.5, 4.0, 4.5, 5.0 min).

[1] abbreviates: Aspergillus flavus, 3357, 0.025 h, 22.0° C. (RT), 90 seconds, PBS.
Where [2] appears, read: Aspergillus flavus, 3357, 0.025 h, 57.5° C. mild heat, 90 seconds, PBS.
The mark [3] stands for this setting: 57.5° C. mild heat, 90 seconds, PBS.

The record followed here is patent US11950596B2, “Methods of protecting seeds from oxidants and microorganisms” (The United States of America, as represented by the …, priority 2020, dated 2024).

Like-named read-outs stand apart in the source and are kept apart here. Marks after values point to notes of the source that are not given here.

For the compound `COc1ccccc1O` [Guaiacol], the MFC was greater than 700 µM under setting [1] and greater than 700 µM under setting [2].
On to `CCCCOC(=O)c1cc(O)c(O)c(O)c1` [Butyl gallate], for which the MFC under setting [1] was greater than 700 µM and the MFC under setting [2] was greater than 700 µM.
For `Cc1ccc(C(C)C)cc1O` [Carvacrol], the MFC was greater than 700 µM under setting [3] and greater than 700 µM under setting [1].
With `O=C(O)c1cc(O)c(O)c(O)c1` [Gallate], the MFC is greater than 700 µM under setting [1] and greater than 700 µM under setting [2].
`CCCCCCCCCCCCOS(=O)(=O)[O-].[Na+]` [Sodium lauryl sulfate]: the MFC reads like this: under setting [1], greater than 700 µM; under setting [2], greater than 700 µM.
For `O=Cc1ccccc1O` [Salicylaldehyde], the MFC is greater than 700 µM under setting [3] and greater than 700 µM under setting [1].
In the case of `O=C(O)c1ccccc1O` [Salicyllic acid], for the setting “Aspergillus flavus, 3357, 0.025 h”, the MFC is greater than 700 µM.
In the case of `O=C(O)c1ccccc1` [Benzoic acid], the MFC under setting [3] is listed as greater than 700 µM and the MFC under setting [1] was greater than 700 µM.
Regarding `COc1cc(C=O)ccc1O` [Vanillin], the MFC is, setting by setting: under setting [1], greater than 700 µM; under setting [2], greater than 700 µM.
Turning to `CCOC(=O)c1cc(O)c(O)c(O)c1` [Ethyl gallate], the MFC was greater than 700 µM under setting [1] and greater than 700 µM under setting [2].
As for `COC(=O)c1cc(O)c(O)c(O)c1` [Methyl gallate], the MFC was greater than 700 µM under setting [1] and greater than 700 µM under setting [2].
As for `Cc1cc(C)nc(Nc2ccccc2)n1` [Pyrimethanil], the “minimum fungicidal concentration (MFC; >99.999% fungal death)” value reads like this: (22.0° C. (RT), 90 seconds, PBS) >64 μg/mL; ppm; under setting [3], >64 μg/mL; ppm.
Turning to `Cc1ccc(C(C)C)c(O)c1` [Thymol], the MFC was greater than 700 µM under setting [1] and greater than 700 µM under setting [2].
In the case of `O=Cc1ccccc1` [Benzaldehyde], the MFC under setting [3] is on record as greater than 700 µM and the MFC under setting [1] was greater than 700 µM.
In the case of `Cc1ccc(C=O)c(O)c1` [2-Hydroxy-4-methylbenzaldehyde], the MFC by setting is: under setting [1], greater than 700 µM; under setting [2], greater than 700 µM.
In the case of `COc1ccc(C=O)c(O)c1` [2-Hydroxy-4-methoxybenzaldehyde], the MFC reads like this: under setting [1], greater than 700 µM; under setting [2], greater than 700 µM.
For `CCCCCCCCCCOC(=O)c1cc(O)c(O)c(O)c1` [Decyl gallate], the MFC was greater than 700 µM (22.0° C. (RT), 90 seconds, PBS); greater than 700 µM under setting [1]; 200 µM under setting [2]. Besides, under setting [3], the “minimum fungicidal concentration (MFC; >99.999% fungal death)” value is on record as 200* μM.
Consider `Cc1cc(C2CC2)nc(Nc2ccccc2)n1` [Cyprodinil], for which the “minimum fungicidal concentration (MFC; >99.999% fungal death)” value (22.0° C. (RT), 90 seconds, PBS) is reported as >64 μg/mL; ppm and the “minimum fungicidal concentration (MFC; >99.999% fungal death)” value under setting [3] is given as >64 μg/mL; ppm.
Turning to `COc1cc(CCC(C)=O)ccc1O` [Vanillylacetone], the MFC is, setting by setting: under setting [1], greater than 700 µM; under setting [2], greater than 700 µM.
With `O=CC=Cc1ccccc1` [Cinnamaldehyde], the MFC under setting [3] is given as greater than 700 µM and the MFC under setting [1] was greater than 700 µM.
With `COc1cc(C(=O)O)ccc1O` [Vanillic acid], the MFC runs as follows: under setting [1], greater than 700 µM; under setting [2], greater than 700 µM.
For `O=C(O)c1ccc(O)cc1O` [2,4-Dihydroxybenzoic acid], the MFC by setting is: under setting [1], greater than 700 µM; under setting [2], greater than 700 µM.
For the compound `CC[C@H](C)C[C@H](C)CCCCCCCCC(=O)N[C@H]1C[C@@H](O)[C@@H](NCCN)NC(=O)[C@@H]2[C@@H](O)CCN2C(=O)[C@H]([C@H](O)CCN)NC(=O)[C@H]([C@H](O)[C@@H](O)c2ccc(O)cc2)NC(=O)[C@@H]2C[C@@H](O)CN2C(=O)[C@H]([C@@H](C)O)NC1=O` [Caspofungin], the “minimum fungicidal concentration (MFC; >99.999% fungal death)” value was >64 μg/mL; ppm (22.0° C. (RT), 90 seconds, PBS) and >64 μg/mL; ppm under setting [3].
Turning to `O=C(O)C=Cc1ccccc1` [Cinnamic acid], the MFC under setting [1] is greater than 700 µM and the MFC under setting [2] was greater than 700 µM.
As to `COC(=O)N(OC)c1ccccc1COc1ccn(-c2ccc(Cl)cc2)n1` [Pyraclostrobin], the “minimum fungicidal concentration (MFC; >99.999% fungal death)” value is >64 μg/mL; ppm (22.0° C. (RT), 90 seconds, PBS) and >64 μg/mL; ppm under setting [3].
As to `CCCOC(=O)c1cc(O)c(O)c(O)c1` [Propyl gallate], the MFC is greater than 700 µM under setting [1] and greater than 700 µM under setting [2].
As to `O=C(O)c1ccc(O)c(O)c1` [3,4-Dihydroxybenzoic acid], the MFC is, setting by setting: under setting [3], greater than 700 µM; under setting [1], greater than 700 µM.
As for `CCC(C)n1ncn(-c2ccc(N3CCN(c4ccc(OCC5COC(Cn6cncn6)(c6ccc(Cl)cc6Cl)O5)cc4)CC3)cc2)c1=O` (stereo not shown) [Itraconazole], the “minimum fungicidal concentration (MFC; >99.999% fungal death)” value is, setting by setting: (22.0° C. (RT), 90 seconds, PBS) 64 μg/mL; ppm; under setting [3], >64 μg/mL; ppm.
The like results for `N#Cc1c[nH]cc1-c1cccc2c1OC(F)(F)O2` [Fludioxonil] were, in that order, >64 μg/mL; ppm and >64 μg/mL; ppm.
`OO` [Hydrogen peroxide]: the MFC reads like this: under setting [1], greater than 700 µM; under setting [2], greater than 700 µM.
As for `CCCCCCCCCOC(=O)c1cc(O)c(O)c(O)c1` [Nonyl gallate], the MFC (22.0° C. (RT), 90 seconds, PBS) was greater than 700 µM; the MFC under setting [1] is greater than 700 µM; the MFC under setting [2] is 400 µM. Besides, under setting [3], the “minimum fungicidal concentration (MFC; >99.999% fungal death)” value is 400* μM.
Turning to `O=Cc1cccc(O)c1O` [2,3-Dihydroxybenzaldehyde], the MFC under setting [1] is greater than 700 µM and the MFC under setting [2] was greater than 700 µM.
